Data published in ChEMBL document CHEMBL1201862, “PubChem BioAssay data set” (2004).
Each block holds one compound with its values, some of them ahead of it. Active and inactive are the calls of the source.

How the values were obtained:
[1] = target: Ubiquitin carboxyl-terminal hydrolase BAP1 (Homo sapiens, UniProt Q92560); assay: inhibition of BAP1 ubiquitin hydrolase activity – biochemical, dose response (AID 714); format: functional
[2] = target: Ras and Rab interactor 1/Tyrosine-protein kinase ABL1 (Homo sapiens, UniProt P00519+Q13671); format: functional;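 also: biochemical TR-FRET dose-response test measuring inhibition of binding between Rin1 and Abl proteins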
[3] = lung carcinoma cell viability loss – CellTiter-Glo luminescence, dry powder, set 17, dose response (AID 1117284); format: functional, cell-based; conditions: A549
[4] = NIH3T3 cell viability loss – ATP luminescence, mouse fibroblasts, counter-screen, dose response (AID 2010); format: functional, cell-based;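 also: cells exposed to compound for about 90 hours before reading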
Paired box protein Pax-8 = Paired box protein Pax-8 (Homo sapiens, UniProt Q06710); assay: PAX8 transcriptional activity inhibition in RMG-I – RMG-I cells, luciferase, cherry-pick, dose response (AID 687027); format: functional, cell-based;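 also: luciferase reporter driven by Pax8 target thyroperoxidase promoter measured by SteadyGlo luminescence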
INS1 = assay: INS-1E survival protection against cytokine death – cell-based, luminescence, retest, dose response (AID 449756); format: functional; conditions: Rattus norvegicus;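 also: cell death triggered by IL-1 beta plus TNF-alpha plus IFN-gamma mixture; protective hits raise ATP signal compared with cytokine alone wells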
[5] = target: Aryl hydrocarbon receptor (Homo sapiens, UniProt P35869); assay: Luminescence-based cell-based high throughput dose response assay for activators of the Aryl Hydrocarbon Receptor (AHR). [Related pubchem assays: 2796 (Primary screen (AHR activators in singlicate)), 2845 (Confirmation screen (AHR activators in triplicate)), 434939 (Counterscreen (PXR activators in triplicate)), 2804 (Summary (AHR activators))]; format: ADME
Aryl hydrocarbon receptor, sequence (P35869 whole entry): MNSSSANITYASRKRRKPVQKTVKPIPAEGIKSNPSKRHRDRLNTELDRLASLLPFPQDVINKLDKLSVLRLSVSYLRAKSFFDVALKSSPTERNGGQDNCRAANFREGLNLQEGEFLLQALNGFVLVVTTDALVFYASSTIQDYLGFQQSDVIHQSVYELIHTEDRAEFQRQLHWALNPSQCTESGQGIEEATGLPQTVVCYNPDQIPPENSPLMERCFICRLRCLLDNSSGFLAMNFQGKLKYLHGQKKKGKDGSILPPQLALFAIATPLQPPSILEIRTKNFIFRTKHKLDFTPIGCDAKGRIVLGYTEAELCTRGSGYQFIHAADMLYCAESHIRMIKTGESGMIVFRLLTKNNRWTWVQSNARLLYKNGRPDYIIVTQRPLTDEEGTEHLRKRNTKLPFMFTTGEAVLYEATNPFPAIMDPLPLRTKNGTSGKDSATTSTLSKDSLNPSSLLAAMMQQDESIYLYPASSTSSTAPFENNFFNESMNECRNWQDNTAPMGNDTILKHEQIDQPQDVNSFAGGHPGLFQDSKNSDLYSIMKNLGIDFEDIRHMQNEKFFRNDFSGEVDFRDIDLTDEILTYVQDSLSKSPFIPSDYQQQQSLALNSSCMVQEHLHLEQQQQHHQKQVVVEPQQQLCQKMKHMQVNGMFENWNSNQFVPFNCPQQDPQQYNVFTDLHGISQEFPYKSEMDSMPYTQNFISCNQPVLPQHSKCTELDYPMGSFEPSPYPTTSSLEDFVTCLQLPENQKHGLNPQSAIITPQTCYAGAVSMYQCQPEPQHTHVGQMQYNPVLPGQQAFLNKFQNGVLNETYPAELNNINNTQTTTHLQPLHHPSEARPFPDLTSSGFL

[6] = Trypanosoma cruzi growth suppression in host cells – NIH3T3 host cells, beta-gal luminescence, confirmation (AID 2044); format: functional, cell-based;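 also: intracellular parasites grown in NIH/3T3 mouse fibroblasts as host cells; luminescent beta-galactosidase reporter signal from transgenic T. cruzi replicating inside host cells; inhibitors lower the luminescence signal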
[7] = loss of viability in HepG2 cells – cell-based, CellTiter-Glo, cherry-picked, cytotoxicity control for Shn3 inhibitor project, dose response (AID 624134); format: functional
[8] = reduction of Shn3 3'UTR-driven luciferase in osteoblasts – cell-based, Clone20 osteoblasts, firefly luciferase, cherry-picked, dose response (AID 624132); format: functional;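 also: firefly luciferase luminescence from reporter carrying the Shn3 3'UTR in osteoblasts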
[9] = non-specific 3'UTR reporter inhibition in Clone20-Shn3RL – cell-based, Renilla luciferase, cherry-picked, counter-screen for Shn3 inhibitor project, dose response (AID 624133); format: functional
[10] = target: T1, Voltage-gated N-type calcium channel alpha-1B subunit/Amyloid beta A4 precursor protein-binding family A member 1 (Homo sapiens, UniProt Q00975+Q02410); format: protein assay
T1 sequence (Q00975 whole entry): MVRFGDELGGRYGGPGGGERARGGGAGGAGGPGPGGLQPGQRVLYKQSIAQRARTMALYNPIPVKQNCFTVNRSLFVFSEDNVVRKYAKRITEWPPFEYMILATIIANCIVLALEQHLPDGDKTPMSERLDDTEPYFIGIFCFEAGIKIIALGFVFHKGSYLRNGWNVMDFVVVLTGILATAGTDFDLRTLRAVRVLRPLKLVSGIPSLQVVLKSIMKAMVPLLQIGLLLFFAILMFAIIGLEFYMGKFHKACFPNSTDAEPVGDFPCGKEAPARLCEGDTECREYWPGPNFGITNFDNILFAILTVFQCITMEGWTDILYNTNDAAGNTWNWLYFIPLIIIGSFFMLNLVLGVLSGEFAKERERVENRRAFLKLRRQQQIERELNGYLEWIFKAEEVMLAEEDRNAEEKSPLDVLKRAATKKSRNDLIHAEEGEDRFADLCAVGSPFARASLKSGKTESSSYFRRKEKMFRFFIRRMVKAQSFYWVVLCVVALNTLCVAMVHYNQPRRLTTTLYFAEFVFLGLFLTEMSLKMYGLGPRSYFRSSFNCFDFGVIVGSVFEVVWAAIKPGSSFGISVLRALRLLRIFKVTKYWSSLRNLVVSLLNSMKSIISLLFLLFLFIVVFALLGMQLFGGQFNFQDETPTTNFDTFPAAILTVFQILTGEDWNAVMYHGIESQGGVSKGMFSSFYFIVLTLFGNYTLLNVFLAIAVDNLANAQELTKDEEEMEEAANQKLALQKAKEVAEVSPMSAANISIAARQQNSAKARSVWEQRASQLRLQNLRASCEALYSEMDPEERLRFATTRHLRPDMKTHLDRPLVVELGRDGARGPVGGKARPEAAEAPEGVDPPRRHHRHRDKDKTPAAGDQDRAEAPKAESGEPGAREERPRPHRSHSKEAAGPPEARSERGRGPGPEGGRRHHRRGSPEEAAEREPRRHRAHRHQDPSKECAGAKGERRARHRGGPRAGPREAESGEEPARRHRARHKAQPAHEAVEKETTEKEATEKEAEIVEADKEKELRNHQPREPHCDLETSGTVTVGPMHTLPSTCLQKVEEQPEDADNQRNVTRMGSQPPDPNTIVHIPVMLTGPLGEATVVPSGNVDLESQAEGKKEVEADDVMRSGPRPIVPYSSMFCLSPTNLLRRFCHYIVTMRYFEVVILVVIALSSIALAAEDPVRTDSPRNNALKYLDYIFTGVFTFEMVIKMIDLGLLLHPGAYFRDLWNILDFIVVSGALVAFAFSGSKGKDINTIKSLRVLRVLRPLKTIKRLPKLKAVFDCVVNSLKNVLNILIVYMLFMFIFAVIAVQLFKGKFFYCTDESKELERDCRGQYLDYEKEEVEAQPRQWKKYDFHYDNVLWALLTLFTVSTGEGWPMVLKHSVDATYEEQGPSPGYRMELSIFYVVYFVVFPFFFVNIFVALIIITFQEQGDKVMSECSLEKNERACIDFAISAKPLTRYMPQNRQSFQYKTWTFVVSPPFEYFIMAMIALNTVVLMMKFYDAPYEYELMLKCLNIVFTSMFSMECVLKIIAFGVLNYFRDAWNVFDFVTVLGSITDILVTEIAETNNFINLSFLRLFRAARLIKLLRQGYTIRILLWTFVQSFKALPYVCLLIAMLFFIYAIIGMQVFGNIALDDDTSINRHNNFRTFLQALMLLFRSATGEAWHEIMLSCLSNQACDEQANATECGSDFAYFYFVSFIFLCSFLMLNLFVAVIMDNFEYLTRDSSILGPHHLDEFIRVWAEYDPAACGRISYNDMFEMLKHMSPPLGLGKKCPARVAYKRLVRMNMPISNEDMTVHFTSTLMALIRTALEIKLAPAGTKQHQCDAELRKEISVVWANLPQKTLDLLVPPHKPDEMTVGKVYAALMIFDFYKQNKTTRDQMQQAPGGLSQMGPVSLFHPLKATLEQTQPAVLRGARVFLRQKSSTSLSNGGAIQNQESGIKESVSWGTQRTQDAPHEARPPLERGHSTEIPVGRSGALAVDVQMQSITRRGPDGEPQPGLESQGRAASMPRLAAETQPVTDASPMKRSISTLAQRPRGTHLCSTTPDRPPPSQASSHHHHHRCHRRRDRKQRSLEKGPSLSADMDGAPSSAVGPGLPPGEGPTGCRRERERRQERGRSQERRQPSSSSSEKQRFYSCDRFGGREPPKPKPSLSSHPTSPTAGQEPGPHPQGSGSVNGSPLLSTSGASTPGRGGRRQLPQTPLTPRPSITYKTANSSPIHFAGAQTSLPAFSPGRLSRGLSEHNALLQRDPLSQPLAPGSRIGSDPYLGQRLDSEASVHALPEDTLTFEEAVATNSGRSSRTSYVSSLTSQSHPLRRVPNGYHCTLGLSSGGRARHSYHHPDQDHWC
T1 sequence (Q02410 whole entry): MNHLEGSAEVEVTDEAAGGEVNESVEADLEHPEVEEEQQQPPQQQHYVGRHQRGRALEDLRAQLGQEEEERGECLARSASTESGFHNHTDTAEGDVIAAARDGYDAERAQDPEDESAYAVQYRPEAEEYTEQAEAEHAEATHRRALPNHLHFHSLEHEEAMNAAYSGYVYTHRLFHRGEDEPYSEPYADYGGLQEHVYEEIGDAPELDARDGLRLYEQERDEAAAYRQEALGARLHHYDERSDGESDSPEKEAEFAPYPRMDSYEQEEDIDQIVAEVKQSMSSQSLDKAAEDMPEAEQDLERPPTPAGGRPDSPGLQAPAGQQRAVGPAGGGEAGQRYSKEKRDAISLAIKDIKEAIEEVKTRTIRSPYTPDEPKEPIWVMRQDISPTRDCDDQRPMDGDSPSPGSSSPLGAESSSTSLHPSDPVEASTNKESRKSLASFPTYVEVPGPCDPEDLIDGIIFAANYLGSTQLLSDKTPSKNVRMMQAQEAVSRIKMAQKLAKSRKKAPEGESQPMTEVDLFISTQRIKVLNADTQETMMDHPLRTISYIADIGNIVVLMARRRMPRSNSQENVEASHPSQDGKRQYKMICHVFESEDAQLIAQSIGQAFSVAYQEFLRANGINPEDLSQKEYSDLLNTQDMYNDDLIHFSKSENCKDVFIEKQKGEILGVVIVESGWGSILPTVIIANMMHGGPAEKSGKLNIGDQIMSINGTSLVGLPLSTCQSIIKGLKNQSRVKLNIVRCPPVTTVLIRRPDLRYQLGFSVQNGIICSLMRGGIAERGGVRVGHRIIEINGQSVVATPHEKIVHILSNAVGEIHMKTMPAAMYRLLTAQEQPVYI

Insulin-degrading enzyme = target: T2, Insulin-degrading enzyme (Homo sapiens, UniProt P14735); assay: Dose Response: Fluorescence polarization-based cell-based high throughput dose response assay for inhibitors of insulin-degrading enzyme (IDE). [Related pubchem assays: 434962 (Primary screen (IDE inhibitors in singlicate)), 449730 (Counterscreen (Cytotoxicity in triplicate)), 435028 (Confirmation (IDE inhibitors in triplicate)), 434984 (Summary …; format: functional
T2 sequence (P14735 whole entry): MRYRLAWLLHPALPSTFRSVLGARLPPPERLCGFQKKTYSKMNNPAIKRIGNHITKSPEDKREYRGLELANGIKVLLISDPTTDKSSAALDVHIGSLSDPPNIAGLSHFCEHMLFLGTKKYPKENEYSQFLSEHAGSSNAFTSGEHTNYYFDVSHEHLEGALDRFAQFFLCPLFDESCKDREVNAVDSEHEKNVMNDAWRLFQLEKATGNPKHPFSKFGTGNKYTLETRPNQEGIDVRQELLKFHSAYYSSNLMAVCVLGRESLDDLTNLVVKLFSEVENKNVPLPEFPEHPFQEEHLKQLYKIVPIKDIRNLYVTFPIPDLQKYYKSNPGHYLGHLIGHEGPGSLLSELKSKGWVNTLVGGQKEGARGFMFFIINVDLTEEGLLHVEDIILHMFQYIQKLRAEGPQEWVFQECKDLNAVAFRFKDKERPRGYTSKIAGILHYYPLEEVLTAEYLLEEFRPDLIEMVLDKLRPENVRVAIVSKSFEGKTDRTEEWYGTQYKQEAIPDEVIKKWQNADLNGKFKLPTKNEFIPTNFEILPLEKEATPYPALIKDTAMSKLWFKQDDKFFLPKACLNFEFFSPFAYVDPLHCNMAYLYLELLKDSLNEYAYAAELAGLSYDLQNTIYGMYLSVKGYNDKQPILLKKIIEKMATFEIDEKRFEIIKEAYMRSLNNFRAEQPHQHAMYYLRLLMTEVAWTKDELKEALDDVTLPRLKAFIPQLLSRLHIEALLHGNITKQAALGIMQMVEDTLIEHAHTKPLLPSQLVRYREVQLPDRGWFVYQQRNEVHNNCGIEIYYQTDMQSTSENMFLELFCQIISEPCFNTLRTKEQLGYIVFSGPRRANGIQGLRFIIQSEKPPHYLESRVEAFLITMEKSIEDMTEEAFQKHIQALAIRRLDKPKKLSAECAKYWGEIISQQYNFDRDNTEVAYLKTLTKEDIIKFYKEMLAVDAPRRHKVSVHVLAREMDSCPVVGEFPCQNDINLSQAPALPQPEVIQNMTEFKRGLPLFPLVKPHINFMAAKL

[11] = target: T1, Voltage-gated N-type calcium channel alpha-1B subunit/Amyloid beta A4 precursor protein-binding family A member 1; format: protein assay; remark: listed apart in the source
[12] = target: T3, Mannose-6-phosphate isomerase (Homo sapiens, UniProt P34949); assay: MPI inhibition at elevated mannose 6-phosphate – biochemical, fluorescence intensity, high mannose 6-phosphate, primary screen (AID 1220)
T3 sequence (P34949 whole entry): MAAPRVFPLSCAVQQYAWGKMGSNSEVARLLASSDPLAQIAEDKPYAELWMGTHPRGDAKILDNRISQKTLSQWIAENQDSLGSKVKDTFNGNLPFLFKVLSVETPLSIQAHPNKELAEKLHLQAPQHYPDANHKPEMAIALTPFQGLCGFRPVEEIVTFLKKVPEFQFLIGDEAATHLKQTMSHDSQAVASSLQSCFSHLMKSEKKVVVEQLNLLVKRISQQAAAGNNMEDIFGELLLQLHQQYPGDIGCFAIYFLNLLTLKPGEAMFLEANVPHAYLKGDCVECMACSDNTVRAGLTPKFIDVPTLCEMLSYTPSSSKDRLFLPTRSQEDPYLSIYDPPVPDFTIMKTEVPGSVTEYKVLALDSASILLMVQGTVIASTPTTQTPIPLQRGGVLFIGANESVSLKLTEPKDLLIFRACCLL

[13] = viability inhibitors of stage V gametocytes – luminescence, dose response (AID 1117278); format: functional, cell-based;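 also: gametocytes exposed to compound for 24 hours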
[14] = viability loss in human Jurkat cells – cell-based, luminescence, cytotoxicity control for P. falciparum gametocyte viability project, dose response (AID 1117277); format: functional;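 also: potency reflects loss of cellular ATP meaning fewer viable cells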

Ubiquitin carboxyl-terminal hydrolase BAP1, sequence (Q92560 whole entry): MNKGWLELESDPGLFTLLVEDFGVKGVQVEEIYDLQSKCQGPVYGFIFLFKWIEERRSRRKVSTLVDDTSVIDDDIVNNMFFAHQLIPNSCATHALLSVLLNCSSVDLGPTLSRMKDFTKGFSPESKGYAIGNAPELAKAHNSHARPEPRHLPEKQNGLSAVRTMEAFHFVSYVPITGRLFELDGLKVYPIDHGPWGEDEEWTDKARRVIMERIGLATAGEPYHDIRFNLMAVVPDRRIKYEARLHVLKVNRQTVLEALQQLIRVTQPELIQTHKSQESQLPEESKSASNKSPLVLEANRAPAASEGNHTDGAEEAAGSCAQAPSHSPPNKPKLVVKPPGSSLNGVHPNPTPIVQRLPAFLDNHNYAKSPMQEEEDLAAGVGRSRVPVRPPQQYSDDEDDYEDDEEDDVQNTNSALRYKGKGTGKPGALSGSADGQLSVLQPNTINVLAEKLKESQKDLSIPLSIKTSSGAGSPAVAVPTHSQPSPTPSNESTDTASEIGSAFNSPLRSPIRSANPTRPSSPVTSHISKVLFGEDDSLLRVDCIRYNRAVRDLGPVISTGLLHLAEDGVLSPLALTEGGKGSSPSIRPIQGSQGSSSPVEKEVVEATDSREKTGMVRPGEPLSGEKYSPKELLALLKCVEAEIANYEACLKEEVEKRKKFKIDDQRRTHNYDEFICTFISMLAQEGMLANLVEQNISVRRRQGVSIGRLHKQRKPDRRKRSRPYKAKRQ

- IC50 [1]: > 50 µM (not active)
SMILES: N#Cc1c(NC(=O)CSc2ncnc3c2cnn3-c2ccccc2Cl)sc2c1CCCC2

SMILES: C[C@@H]1CN([C@H](C)CO)S(=O)(=O)c2ccc(C#C[C@@H](C)O)cc2O[C@@H]1CN(C)Cc1ccc(-c2ccccc2)cc1
- IC50 [2]: 9.68 µM (active)
- AC50 [3]: 36.1 µM (active)

SMILES: CCc1ccc2[nH]c3nc(N/N=C/c4ccc(O)cc4O)nnc3c2c1
- EC50 [4]: 17.7 µM (active)
- AC50 (Paired box protein Pax-8): 2.7 µM (active)
- AC50 (INS1): 1.58 µM (active)
- EC50 [5]: > 91.7 µM (not active)
- EC50 [6]: 2.44 µM (active)

SMILES: c1ccc(Nc2nc(NCC3CCCO3)c3ccccc3n2)cc1 (stereo not given)
- EC50 [4]: > 60 µM (not active)
- EC50 (cells): 0.131 µM (active)
- AC50 [7]: 7.09 µM (active)
- AC50 [8]: 21.7 µM (active)
- AC50 [9]: 4.84 µM (active)
- EC50 [6]: < 0.1 µM (active)

- IC50 [10]: 28.5 µM (active)
- IC50 [11]: 2.71 µM (active)
- IC50 [12]: 9.69 µM (active)
SMILES: O=c1[nH]c2ccccc2c(O)c1O
- IC50 (Insulin-degrading enzyme): 3.28 µM (active)

SMILES: COc1ccc(CC(=O)Nc2cccc(-c3ccc4nnc(C)n4n3)c2)cc1OC
- IC50 [13]: > 109 µM (inactive)
- IC50 [14]: 35.6 µM (inactive)
